Reference: patent publication US20170281772A1, “A NEURAL SUBSTRATE FOR SUGAR PREFERENCE” (The Trustees of Columbia University in the City of New York, priority 2014, published 2017)
Entries after “also recorded” stand apart in the source; their conditions may differ.

How the values were obtained:
[1] = system: neurons in the caudal nucleus of the solitary tract (cNST); assay: cFos staining of the caudal nucleus of the solitary tract after drinking the solution; assay type: in vivo, mice; details: for cFos labeling of cNST neurons: wild-type animals, water deprived thirty-six hours, 1 mL solution by drinking
Description: To determine where sugar preference is encoded, applicants screen brain regions for increased expression of Fos, a proxy for neural activity, in animals challenged with sugar but not water or artificial sweetener.
Wild-type animals were water deprived for thirty-six hours and then given access to 1 mL solution of water (FIG. 3A), sucrose (FIG. 3), or artificial sweetener (FIG. 3C). Tasteless (TrpM5 knockout) animals were given water (FIG. 3D) or sucrose (FIG. 3E), The caudal nucleus of the solitary tract was analyzed using cFos staining. […] Green: c-fos antibody staining. Magenta: a neural stain (neurotrace) (FIG. 3A-3D).

[2] = system: neurons in the caudal nucleus of the solitary tract (cNST); assay: cFos staining of the nucleus of the solitary tract after direct infusion to the gut; assay type: in vivo; details: for Fos expression in the cNST when gavaged: gavage, compared with animals drinking the same solution; for cFos labeling of cNST neurons after gut infusion: wild type animals, 0.5 mL infused directly into the gut
Description: Wild type animals were infused directly into the gut with 0.5 mL of water (FIG. 4A), sucrose (FIG. 4B), or artificial sweetener (FIG. 4C). […] Green: c-fos antibody staining. Magenta; a neural stain (neurotrace) (FIG. 4A-4C).

[3] = two-solution preference behavioral assay, artificial sweetener (AceK) versus sucrose, naive animals; assay type: in vivo, mice
Description: To explicitly test for sugar preference in mice, applicants developed a simple behavioral assay.
During five minute trials, two groups of five naive animals were presented with an intensely sweet, artificial compound (Acesulfame potassium or AceK) and a less sweet natural sugar (sucrose) . […] Animals were then returned to their home cage and given access to either artificial sweetener (Group 1) or natural sugar (Group 2) for one hour. […] Twenty four hours later, Group 1 was given natural sugar while Group 2 was given artificial sweetener.

[4] = consumption trials of sucralose with or without MDG in a satiated animal; assay type: in vivo; details: 32 mM sucralose+0.4 M MDG vs 32 mM sucralose alone, 20 trials
Description: A satiated animal was given 32 mM sucralose for the first 11 trials, and then given either 32 mM sucralose alone, or 32 mM sucralose+0.4 M MDG. […] Shown are 20 trials.

activity in the cNST = assay: silencing of cNST activity by cannula injection during sucrose exposure, sugar preference formation; assay type: in vivo
Description: When given a choice between highly concentrated artificial sweetener and a low concentration of natural sweet, animals consume the sweeter substance. However, after one exposure to natural sugar, animals switch their preference to the natural sweet (See FIG. 5). If the cNST is indeed an essential brain center for establishing sugar preference, a prediction would be that silencing the activity of the neurons in this nucleus during exposure to sugar should prevent a preference from forming. To determine if this is the case, applicants implanted a cannula above the cNST of naive animals, waited 2 weeks for recovery, and then assessed the ability of these animals to form a sugar preference. […] Prior to receiving sugar in their home cage, animals were injected with a glutamate receptor antagonist (50 nL of NBQX, […]) to reversibly silence activity in the cNST.

## CC1=CC(=O)NS(=O)(=O)O1 [AceK, Acesulfame potassium]
[1]
  cFos labeling of cNST neurons: almost no labeled cells at all
[2]
  Fos expression in the cNST when gavaged: identical
  cFos labeling of cNST neurons after gut infusion: almost no labeled cells at all
[3]; five minute trials, naive animals, before home-cage exposure
  initial consumption, AceK versus sucrose: much more AceK than sucrose

## COC1OC(CO)C(O)C(O)C1O [MDG, Alpha-Methyl-D-Glucopyranose]
[4]
  appetitiveness/consumption of sucralose: dramatically increases the appetitiveness/consumption of sucralose; also recorded: transforms a sucralose solution into the preferred Artificial Sweetener

## NS(=O)(=O)c1cccc2c1c([N+](=O)[O-])cc1nc(O)c(O)nc12 [NBQX]
Activity in the cNST; 50 nL of NBQX, 5 pg/mL, injected above the cNST prior to sugar in home cage, tested twenty-four hours later
  formation of sugar preference with the cNST silenced: continued to prefer the artificial sweetener
Activity in the cNST; after the drug washed out
  sugar preference formation after washout: regained their ability to form a preference
Activity in the cNST; short-access assays, same animals
  effect of silencing on sweet taste: does not abolish sweet taste

## OC[C@H]1O[C@@](CO)(O[C@H]2O[C@H](CO)[C@@H](O)[C@H](O)[C@H]2O)[C@@H](O)[C@@H]1O [sucrose]
[1]; TrpM5 knockout animals, compared with wild type
  cFos labeling of cNST neurons in tasteless animals: identical pattern of labeling
[1]
  cFos labeling of cNST neurons: robustly labeled
[2]
  Fos expression in the cNST when gavaged: identical
  cFos labeling of cNST neurons after gut infusion: robustly labeled
[3]; after one hour home-cage access to natural sugar, final preference test
  preference between artificial sweetener and sucrose after exposure to sucrose: animals change preference between artificial sweetener and sucrose after one exposure to sucrose; also recorded: both groups prefer the natural sugar
